From patent US20240287107A1, “PRODRUGS OF DIMETHYLTRYPTAMINE AND DERIVATIVES THEREOF” (priority 2022, published 2024)

Assay: Stability in mouse plasma
Type: in vitro ADME
Procedure: Chemical and plasma stability of prodrug Compound 1 was evaluated and the results enumerated in Table 7 and Table 8, respectively. PK studies of prodrug Compound 1 and metabolite (VLS-02-23-10) in mice were also conducted and both plasma exposure and brain exposure were analyzed as shown in FIGS. 1A-1C and FIGS. 2A-2B, respectively.

SMILES | T½ [h]
C[N+](C)(CCc1c[nH]c2ccccc12)COP(=O)([O-])O [Compound 1, ((2-(1H-indol-3-yl)ethyl)dimethyl-λ^4-azaneyl)methyl hydrogen phosphate] | 9.4723
CC(C)[N+](C)(CCOC(=O)C1c2ccccc2Oc2ccccc21)C(C)C [Propantheline] | 0.5682
